Results from PubChem BioAssay AID1845203 (Molecular Pharmacology Branch, DTP, NCI, 2023).

System: G-401 tumor spheroids, viability % test/control
Assay: Anticancer human tumor G-401 cell line growth inhibition;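 note: spheroids exposed to compound for 7 days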;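 for viability, T/C: 100% = DMSO vehicle-treated spheroids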
Settings: spheroids with HUVEC and MSC; for IC50: curve of first compound; for viability, T/C: stronger effect = lower value; active = viability on the fitted dose curve at most 10% of control; inactive = the rest
Procedure, shortened: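 Complex tumor spheroids combined malignant cells with endothelial cells and mesenchymal stem cells. DNA-damaging drugs and DNA repair inhibitors were tested alone and in combination, at half-log dilutions down from clinical Cmax (top 10 microM if Cmax unknown), 0.25% DMSO final.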

[1] = second compound 1 µM, first compound 0.0316 µM
[2] = second compound 1 µM, first compound 0.1 µM
[3] = second compound 1 µM, first compound 0.316 µM
[4] = second compound 1 µM, first compound 1 µM
[5] = second compound 1 µM, first compound 3.16 µM
[6] = second compound 1 µM, first compound 10 µM
[7] = second compound 3.16 µM, first compound 0.0316 µM
[8] = second compound 3.16 µM, first compound 0.1 µM
[9] = second compound 3.16 µM, first compound 0.316 µM
[10] = second compound 3.16 µM, first compound 1 µM
[11] = second compound 3.16 µM, first compound 3.16 µM
[12] = second compound 3.16 µM, first compound 10 µM
[13] = second compound 10 µM, first compound 0.0316 µM
[14] = second compound 10 µM, first compound 0.1 µM
[15] = second compound 10 µM, first compound 0.316 µM
[16] = second compound 10 µM, first compound 1 µM
[17] = second compound 10 µM, first compound 3.16 µM
[18] = second compound 10 µM, first compound 10 µM
[19] = second compound 31.6 µM, first compound 0.0316 µM
[20] = second compound 31.6 µM, first compound 0.1 µM
[21] = second compound 31.6 µM, first compound 0.316 µM
[22] = second compound 31.6 µM, first compound 1 µM
[23] = second compound 31.6 µM, first compound 3.16 µM
[24] = second compound 31.6 µM, first compound 10 µM
[25] = second compound 100 µM, first compound 0.0316 µM
[26] = second compound 100 µM, first compound 0.1 µM
[27] = second compound 100 µM, first compound 0.316 µM
[28] = second compound 100 µM, first compound 1 µM
[29] = second compound 100 µM, first compound 3.16 µM
[30] = second compound 100 µM, first compound 10 µM

CC(C)n1c(=O)n(C)c2cnc3cc(F)c(-c4ccc(OCCCN5CCCCC5)nc4)cc3c21 + Cn1nnc2c(C(N)=O)ncn2c1=O
inactive: viability, T/C [1] 99.9% | viability, T/C [2] 104% | viability, T/C [3] 102% | viability, T/C [4] 104% | viability, T/C [5] 103% | viability, T/C [6] 76.5% | viability, T/C [7] 81.6% | viability, T/C [8] 102% | viability, T/C [9] 102% | viability, T/C [10] 102% | viability, T/C [11] 99.4% | viability, T/C [12] 83.6% | viability, T/C [13] 105% | viability, T/C [14] 98.9% | viability, T/C [15] 97.5% | viability, T/C [16] 103% | viability, T/C [17] 101% | viability, T/C [18] 66.2% | viability, T/C [19] 97.8% | viability, T/C [20] 95.4% | viability, T/C [21] 97.7% | viability, T/C [22] 96.3% | viability, T/C [23] 90.4% | viability, T/C [24] 62.8% | viability, T/C [25] 89.6% | viability, T/C [26] 92.5% | viability, T/C [27] 86.6% | viability, T/C [28] 88% | viability, T/C [29] 91.6% | viability, T/C [30] 80.1%
> 10 µM: IC50 (second compound 1 µM) | IC50 (second compound 3.16 µM) | IC50 (second compound 10 µM) | IC50 (second compound 31.6 µM) | IC50 (second compound 100 µM)

COc1ccc([C@@H](O)c2cc(-c3ncnc4cc(N5CCOCC5)ccc34)c(F)cc2Cl)nn1 + Cn1nnc2c(C(N)=O)ncn2c1=O
inactive: viability, T/C [1] 103% | viability, T/C [2] 95.7% | viability, T/C [3] 88.1% | viability, T/C [4] 60.9% | viability, T/C [5] 21.9% | viability, T/C [7] 96.6% | viability, T/C [8] 90.8% | viability, T/C [9] 91.4% | viability, T/C [10] 46.3% | viability, T/C [11] 20.6% | viability, T/C [12] 10.6% | viability, T/C [13] 105% | viability, T/C [14] 96.1% | viability, T/C [15] 90% | viability, T/C [16] 57.8% | viability, T/C [17] 20.9% | viability, T/C [18] 10.8% | viability, T/C [19] 90.9% | viability, T/C [20] 88.8% | viability, T/C [21] 85.1% | viability, T/C [22] 52% | viability, T/C [23] 22.5% | viability, T/C [24] 10.8% | viability, T/C [25] 89.5% | viability, T/C [26] 87.4% | viability, T/C [27] 82.9% | viability, T/C [28] 49.5% | viability, T/C [29] 19.1%
1.02 µM: IC50 (second compound 100 µM)
active: viability, T/C [6] 9.93% | viability, T/C [30] 8.51%
1.13 µM: IC50 (second compound 31.6 µM)
1.26 µM: IC50 (second compound 10 µM)
1.35 µM: IC50 (second compound 1 µM)
0.932 µM: IC50 (second compound 3.16 µM)
